Consider 6 compounds from paper PMC8092912 (Antimicrobial Agents and Chemotherapy, 2021).

Where two headings read alike, the source gives them in different places.

Data set [1] concerns HIV-1 strain NL4.3 G140S+Q148H. Put plainly: Drug washout, viral replication (RT activity in culture supernatant) of G140S+Q148H virus in MT-2 cells. Type of data set: cell-based. Particulars: for G140S+Q148H viral replication under constant drug pressure: drug at 20 times IC90, no washout. On the procedure:
(§1) We then washed away the inhibitors 3 days postinfection and quantified the reverse transcriptase activity in the culture supernatant to evaluate viral growth as described on washout days 0, 4, and 8 ([10], [11]). […] Longer experiments would be required to further differentiate BIC and DTG in washout experiments using WT virus.
(§2) Replication was assessed by measuring RT activity in culture supernatant without and after drug washout. Bar graphs, mean ± SEM. Statistical significance of drug washout with drug control conditions were assessed by adjusted P value with Tukey’s test: *, <0.05; ***, <0.001; and ****, <0.0001. For the washout experiments, BIC and EVG were synthesized at Gilead Sciences, Inc., DTG was purchased from Toronto Research Chemicals (ON, Canada), and RAL was provided by Merck, Inc.
The G140S+Q148H mutations cause varied degrees of resistance to INSTIs.

The test system of data set [2] is HIV-1 G140S+Q148H. Put plainly: Antiviral activity against G140S+Q148H HIV-1 in the MT-2 cell line. Type of data set: cell-based. Particulars: for EC50: Human immunodeficiency virus 1, MT2; for Fold change of EC50, G140S+Q148H (reduced susceptibility): versus WT.
Data set [3] addresses T1, WT HIV-1 IN-DNA complexes (Human immunodeficiency virus type 1 group M subtype B, UniProt P04585). Particulars: cited from earlier work.
For data set [4], the target named is T1, WT HIV-1 IN-DNA complexes. The protocol:
(§3) Data sets were analyzed using a single exponential decay equation as previously published for INSTIs ([3]).

Data set [5] deals with G140S+Q148H mutant HIV-1 IN-DNA complexes. The protocol:
as §3

Data set [6] deals with T2, G140S+Q148H mutant HIV-1 IN-DNA complexes (Human immunodeficiency virus type 1 group M subtype B, UniProt P04585, G1287S/Q1295H). Particulars: for Apparent t1/2, G140S+Q148H: 37°C, single exponential decay. The protocol:
as §3

Data set [7] has as its system HIV-1 strain NL4.3 WT. Put plainly: Drug washout, viral replication (RT activity in culture supernatant) of WT virus in MT-2 cells. Particulars: for Time WT viral replication remained inhibited after washout: drug at 20 times IC90, washout 3 days postinfection; for WT viral replication after washout: drug at 20 times IC90, 4 days after washout. Type of data set: cell-based. On the procedure:
as §1, §2

In data set [8] the test system is HIV-1 WT. In words: Antiviral activity against WT HIV-1 in the MT-2 cell line. Type of data set: cell-based. Particulars: Human immunodeficiency virus 1, MT2. The source says:
TABLE 1 Structure and antiviral activity of INSTIs in the MT-2 cell line | column: Antiviral activity against HIV-1, EC50 (nM)^b (fold change) / WT

The target in data set [9] is T2, G140S+Q148H mutant HIV-1 IN-DNA complexes. Particulars: values in square brackets; cited from earlier work.

Take `C[C@@H]1CCO[C@H]2Cn3cc(C(=O)NCc4ccc(F)cc4F)c(=O)c(O)c3C(=O)N12` [DTG, dolutegravir]: the “G140S+Q148H viral replication after washout” value in data set [1] (drug at 20 times IC90, 4 and 8 days after washout) is recorded as “significant viral replication”. For the same compound, the “G140S+Q148H viral replication under constant drug pressure” value in data set [1] is “low replication”. Besides, in data set [2], the EC50 (as a rule, the concentration at which the effect is half-maximal) worked out at 6.5 ± 1.2 nM and the “Fold change of EC50, G140S+Q148H (reduced susceptibility)” value stood at 4.3 fold. In data set [3] (values in square brackets), the “Apparent t1/2, WT” value is reported as 71 h and the “koff, WT” value is recorded as 2.7 ± 0.4 s^−1 (×10^−6). For the same compound, in data set [4] (37°C, single exponential decay), the “Apparent t1/2, WT” value is recorded as 96 ± 29 h and the “koff, WT” value was 2.2 ± 0.7 s^−1 (×10^−6). Also, in data set [5], the “Apparent t1/2, G140S+Q148H, fold change vs WT” value was found to be 51 fold and the “koff, G140S+Q148H, fold change vs WT” value was found to be 0.02 fold. The “Apparent t1/2, G140S+Q148H” value in data set [6] was determined as 1.9 ± 0.2 h. The “Time WT viral replication remained inhibited after washout” value in data set [7] was “at least 8 days”. This compound also yielded an EC50 in data set [8] of 1.5 ± 0.2 nM. Also, in data set [9], the “Apparent t1/2, G140S+Q148H” value was 3.3 h and the “koff, G140S+Q148H” value is on record as 58 ± 8 s^−1 (×10^−6).

For `O=C(NCc1ccc(F)cc1F)c1cn2c(c(O)c1=O)C(=O)N1[C@H]3CC[C@H](C3)O[C@@H]1C2` [Compound 1], in data set [2], the response was half-maximal at 4.5 ± 1.8 nM (EC50) and the “Fold change of EC50, G140S+Q148H (reduced susceptibility)” value was determined as 3.2 fold. Further, in data set [4] (37°C, single exponential decay), the “Apparent t1/2, WT” value came to 155 ± 25 h and the “koff, WT” value is recorded as 1.3 ± 0.2 s^−1 (×10^−6). Besides, in data set [5], the “Apparent t1/2, G140S+Q148H, fold change vs WT” value is 32 fold and the “koff, G140S+Q148H, fold change vs WT” value is recorded as 0.03 fold. The “Apparent t1/2, G140S+Q148H” value in data set [6] came to 4.8 ± 0.2 h. Moreover, the concentration giving a half-maximal response (EC50) in [8] was 1.4 ± 0.5 nM.

`Cc1nnc(C(=O)NC(C)(C)c2nc(C(=O)NCc3ccc(F)cc3)c(O)c(=O)n2C)o1` [RAL, raltegravir]: the 50% effective concentration (EC50) was determined as 2460 nM in data set [2] and 9.4 ± 1.4 nM in data set [8]. Besides, the “Apparent t1/2, WT” value in data set [3] and in data set [4] (recombinant enzyme) was 10 ± 2 [8.8] h in each case. Also, the “koff, WT” value in data set [3] and in [4] was 21 ± 6 [22 ± 2] throughout. For the same compound, in [6], the “Binding to G140S+Q148H IN-DNA complexes for determination of dissociation kinetics” value is recorded as “insufficient level of binding”. For the same compound, the “WT viral replication after washout” value in data set [7] was “detectable viral replication”. For the same compound, the “Apparent t1/2, G140S+Q148H” value in data set [9] was “ND [0.2] h”. The “koff, G140S+Q148H” value in data set [9] is “ND [1,130] s^−1 (×10^−6)”.

`COc1cc2c(cc1Cc1cccc(Cl)c1F)c(=O)c(C(=O)O)cn2[C@H](CO)C(C)C` [EVG, elvitegravir]: the EC50 in data set [2] stood at 868 ± 138 nM; in [8], 2.1 ± 0.9 nM. Besides, in data set [7], the “WT viral replication after washout” value is on record as “detectable viral replication”.

Regarding `O=C(NCc1c(F)cc(F)cc1F)c1cn2c(c(O)c1=O)C(=O)N1[C@@H]3CC[C@@H](C3)O[C@H]1C2` [Compound 2], the values for the half-maximal effective concentration (EC50) in [2] and in [8] were 11.1 ± 0.5 nM and 1.5 ± 0.5 nM, respectively. Moreover, in [6], the “Apparent t1/2, G140S+Q148H” value came out at 1.7 ± 0.2 h.

For `O=C(NCc1c(F)cc(F)cc1F)c1cn2c(c(O)c1=O)C(=O)N1[C@H]3CC[C@H](C3)O[C@@H]1C2` [BIC, bictegravir], in [1] (drug at 20 times IC90, after 8 days of washout), the “Suppression of the G140S+Q148H virus after washout” value is listed as more than 80%. Further, the “G140S+Q148H viral replication under constant drug pressure” value in data set [1] is given as “very low levels of replication”. Also, the concentration for a half-maximal effect (EC50) came out at 3.1 ± 0.8 nM in [2] and 1.5 ± 0.2 nM in [8]. Further, the “Apparent t1/2, G140S+Q148H” value in [6] was 5.7 ± 0.4 h. For the same compound, in [7], the “Time WT viral replication remained inhibited after washout” value is reported as “at least 8 days”.
